Laboratory results reported in patent US20220106289A1, “NLRP3 INHIBITORS” (INFLAZOME LIMITED, priority 2018, published 2022).
Where a name gives a salt, the structure may show the parent alone.

Target: NLRP3 (Homo sapiens, UniProt Q96P20)
Assay: THP-1 cells pyroptosis assay (LPS + nigericin, resazurin read-out)
Type: cell-based
Parameters: Seed THP-1 cells (25,000 cells/well) containing 1.0 μg/ml LPS; host or cells: THP-1 cells
Conditions: NLRP3 inhibitory activity, 1 μg/ml LPS, 5 μM nigericin
Procedure: The cells were routinely passaged and grown to confluency (˜10^6 cells/ml). On the day of the experiment, THP-1 cells were harvested and resuspended into RPMI medium (without FBS). The cells were then counted and viability (>90%) checked by Trypan blue (Sigma #T8154). […] To this diluted cell solution was added LPS (Sigma #L4524) to give a 1 μg/ml Final Assay Concentration (FAC). 40 μl of the final preparation was aliquoted into each well of a 96-well plate. The plate thus prepared was used for compound screening. The following method step-by-step assay was followed for compound screening. • 1. […] Incubate for 3 hrs at 37° C., 5% CO2 • 4. Add 5 μl nigericin (Sigma #N7143) (FAC 5 μM) to all wells • 5. Incubate for 1 hr at 37° C., 5% CO2 • 6. At the end of the incubation period, spin plates at 300×g for 3 mins and remove supernatant • 7. Then add 50 μl of resazurin (Sigma #R7017) (FAC 100 μM resazurin in RPMI medium without FBS) and incubate plates for a further 1-2 hrs at 37° C. and 5% CO2 • 8.

NLRP3, sequence (Q96P20 whole entry): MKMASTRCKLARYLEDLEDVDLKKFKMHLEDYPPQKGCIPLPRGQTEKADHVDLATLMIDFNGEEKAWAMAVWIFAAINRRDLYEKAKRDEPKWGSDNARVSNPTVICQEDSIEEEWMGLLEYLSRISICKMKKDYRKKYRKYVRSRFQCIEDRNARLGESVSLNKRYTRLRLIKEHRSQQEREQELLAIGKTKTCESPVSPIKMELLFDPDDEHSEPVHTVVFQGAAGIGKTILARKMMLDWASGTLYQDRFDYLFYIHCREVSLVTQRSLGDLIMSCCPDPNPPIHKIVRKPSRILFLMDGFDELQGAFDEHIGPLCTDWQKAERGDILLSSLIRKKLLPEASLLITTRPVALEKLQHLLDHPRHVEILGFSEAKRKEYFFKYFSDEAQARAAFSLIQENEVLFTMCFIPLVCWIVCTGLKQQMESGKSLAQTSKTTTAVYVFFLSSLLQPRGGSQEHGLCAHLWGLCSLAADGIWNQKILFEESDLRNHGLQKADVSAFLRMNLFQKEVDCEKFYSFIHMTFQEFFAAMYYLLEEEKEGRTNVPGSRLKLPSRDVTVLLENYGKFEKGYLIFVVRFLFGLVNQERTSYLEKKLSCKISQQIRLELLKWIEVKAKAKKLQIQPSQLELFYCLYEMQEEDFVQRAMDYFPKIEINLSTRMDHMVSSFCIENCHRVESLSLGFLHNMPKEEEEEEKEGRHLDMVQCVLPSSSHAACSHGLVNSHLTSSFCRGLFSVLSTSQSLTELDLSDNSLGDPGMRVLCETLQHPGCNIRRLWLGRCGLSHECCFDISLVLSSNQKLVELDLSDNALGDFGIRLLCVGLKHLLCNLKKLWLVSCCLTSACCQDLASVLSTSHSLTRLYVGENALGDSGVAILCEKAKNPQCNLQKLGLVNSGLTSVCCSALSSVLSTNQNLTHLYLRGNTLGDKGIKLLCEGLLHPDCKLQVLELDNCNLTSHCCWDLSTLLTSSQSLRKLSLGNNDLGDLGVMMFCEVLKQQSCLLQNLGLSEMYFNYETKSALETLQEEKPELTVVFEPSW

Row | SMILES | IC50 [µM]
1 | CC(C)c1cccc(C(C)C)c1NC(=O)NS(=O)(=O)c1cnn(CC(F)(F)F)c1 [Example 76, N-((2,6-Diisopropylphenyl)carbamoyl)-1-(2,2,2-trifluoroethyl)-1H-pyrazole-4-sulfonamide] | 5 to 10
2 | COc1cc(-c2ccc3c(c2CC(=O)NS(=N)(=O)C2CN(C(C)C)C2)CCC3)ccn1 (stereo not drawn) [Example 25, N-(1-Isopropylazetidine-3-sulfonimidoyl)-2-(5-(2-methoxypyridin-4-yl)-2,3-dihydro-1H-inden-4-yl)acetamide] | 5 to 10
3 | CCOC(=O)c1cc(S(=O)(=O)NC(=O)Nc2c3c(cc4c2CCC4)CCC3)nn1C [Example 79, Ethyl 3-(N-((1,2,3,5,6,7-hexahydro-s-indacen-4-yl)carbamoyl)sulfamoyl)-1-methyl-1H-pyrazole-5-carboxylate] | 0.5 to 1
4 | CC(C)n1ccc(S(=O)(=O)NC(=O)Nc2c3c(c(Br)c4c2CCC4)CCC3)n1 [Example 38, N-((8-Bromo-1,2,3,5,6,7-hexahydro-s-indacen-4-yl)carbamoyl)-1-isopropyl-1H-pyrazole-3-sulfonamide] | < 0.25
5 | CC(C)(O)c1coc(S(=O)(=O)NC(=O)Cc2cc(C(F)(F)F)cc(C(F)(F)F)c2)c1 [Example 98, 2-(3,5-bis(Trifluoromethyl)phenyl)-N-((4-(2-hydroxy-propan-2-yl)furan-2-yl)sulfonyl)acetamide] | 1 to 5
6 | COc1cc(-c2ccc3c(c2NC(=O)N[S+]([O-])c2ccn(C(C)C)n2)CCC3)ccn1 (stereo not drawn) [Example 23, 1-Isopropyl-N-((5-(2-methoxypyridin-4-yl)-2,3-dihydro-1H-inden-4-yl)carbamoyl)-1H-pyrazole-3-sulfinamide] | 1 to 5
7 | CC(C)(O)c1coc(S(=O)(=O)NC(=O)Cn2ncc3ccccc32)c1 [Example 89, N-((4-(2-Hydroxypropan-2-yl)furan-2-yl)sulfonyl)-2-(1H-indazol-1-yl)acetamide] | 1 to 5
8 | CC(C)c1cc(F)cc(C(C)C)c1CC(=O)NS(=O)(=O)c1ccn(C(C)C)n1 [Example 26, 2-(4-Fluoro-2,6-diisopropylphenyl)-N-((1-isopropyl-1H-pyrazol-3-yl)sulfonyl)acetamide] | 1 to 5
9 | Cc1nn(C(C)C)cc1S(=O)(=O)NC(=O)Nc1c2c(cc3c1CCC3)CCC2 [Example 43, N-((1,2,3,5,6,7-Hexahydro-s-indacen-4-yl)carbamoyl)-1-isopropyl-3-methyl-1H-pyrazole-4-sulfonamide, sodium salt] | 0.25 to 0.5
10 | CC(C)c1cc(F)cc(C(F)(F)F)c1NC(=O)NS(=O)(=O)c1ccn(C(C)C)n1 [Example 70, N-((4-Fluoro-2-isopropyl-6-(trifluoromethyl)phenyl)carbamoyl)-1-isopropyl-1H-pyrazole-3-sulfonamide] | 5 to 10
11 | COc1cc(-c2ccc3c(c2NC(=O)NCc2nnn[nH]2)CCC3)ccn1 [Example 88, 1((1H-Tetrazol-5-yl)methyl)-3-(5-(2-methoxypyridin-4-yl)-2,3-dihydro-1H-inden-4-yl)urea] | 5 to 10
12 | COc1cc(-c2cc(F)cc(C(C)C)c2CC(=O)Nc2ncco2)ccn1 [Example 95, 2-(4-Fluoro-2-isopropyl-6-(2-methoxypyridin-4-yl)phenyl)-N-(oxazol-2-yl)acetamide] | 5 to 10
13 | CC(C)c1cc(F)cc(C(C)C)c1CC(=O)NS(=O)(=O)c1ccc2ccccc2c1 [Example 96, 2-(4-Fluoro-2,6-diisopropylphenyl)-1-(2-naphthylsulfonylamino)-1-ethanone] | 1 to 5
14 | CC(C)(O)c1coc(S(=O)(=O)NC(=O)Cc2noc3ccccc23)c1 [Example 90, 2-(Benzo[d]isoxazol-3-yl)-N-((4-(2-hydroxypropan-2-yl)furan-2-yl)sulfonyl)acetamide] | 1 to 5
15 | CC(C)c1cc(-c2ccccc2)cc(C(C)C)c1NC(=O)NS(=O)(=O)c1ccn(C(C)C)n1 [Example 73, N-((3,5-Diisopropyl-[1,1′-biphenyl]-4-yl)carbamoyl)-1-isopropyl-1H-pyrazole-3-sulfonamide] | 5 to 10
16 | CC(C)c1cc(F)cc2c1C(C(=O)NS(=O)(=O)c1cc(C(=O)N(C)C)n(C)n1)CC2(C)C (stereo not drawn) [Example 11, 3-(N-(5-Fluoro-7-isopropyl-3,3-dimethyl-2,3-dihydro-1H-indene-1-carbonyl)sulfamoyl)-N,N,1-trimethyl-1H-pyrazole-5-carboxamide] | 5 to 10
17 | CC(C)(O)c1coc(S(=O)(=O)NC(=O)Cc2cc(Cl)cc(OC(F)(F)F)c2)c1 [Example 91, 2-(3-Chloro-5-(trifluoromethoxy)phenyl)-N-((4-(2-hydroxypropan-2-yl)furan-2-yl)sulfonyl)acetamide] | 1 to 5

Row | SMILES | IC50 [µM]
18 | CC(C)(O)c1coc(S(=O)(=O)NC(=O)Cc2cccc(I)c2)c1 [Example 93, N-((4-(2-Hydroxypropan-2-yl)furan-2-yl)sulfonyl)-2-(3-iodophenyl)acetamide] | 5 to 10
19 | CC(C)c1cc(F)cc(C(C)C)c1NC(=O)NS(=O)(=O)c1ccn(CC(F)(F)F)n1 [Example 78, N-((4-Fluoro-2,6-diisopropylphenyl)carbamoyl)-1-(2,2,2-trifluoroethyl)-1H-pyrazole-3-sulfonamide, sodium salt] | 1 to 5
20 | CC(C)c1cccc(O[C@@H]2CCOC2)c1NC(=O)NS(=O)(=O)c1ccn(C(C)C)n1 [Example 85, (R)-1-Isopropyl-N-((2-isopropyl-6-((tetrahydrofuran-3-yl)oxy)phenyl)carbamoyl)-1H-pyrazole-3-sulfonamide] | 5 to 10
21 | Cc1nn(C)cc1S(=O)(=O)NC(=O)Nc1c2c(cc3c1CCC3)CCC2 [Example 80, N-((1,2,3,5,6,7-Hexahydro-s-indacen-4-yl)carbamoyl)-1,3-dimethyl-1H-pyrazole-4-sulfonamide, sodium salt] | 0.5 to 1
22 | CC(C)c1cc(F)cc2c1C(C(=O)NS(=O)(=O)c1ccn(C(C)C)n1)CC2(C)C (stereo not drawn) [Example 10, 5-Fluoro-7-isopropyl-N-((1-isopropyl-1H-pyrazol-3-yl)sulfonyl)-3,3-dimethyl-2,3-dihydro-1H-indene-1-carboxamide, potassium salt (rotamer P2)] | 5 to 10
23 | CC(C)c1cccc(O[C@H]2CCOC2)c1NC(=O)NS(=O)(=O)c1ccn(C(C)C)n1 [Example 86, (S)-1-Isopropyl-N-((2-isopropyl-6-((tetrahydrofuran-3-yl)oxy)phenyl)carbamoyl)-1H-pyrazole-3-sulfonamide] | 1 to 5
24 | CC(C)n1ccc(S(=O)(=O)NC(=O)Nc2c3c(c(C#N)c4c2CCC4)CCC3)n1 [Example 37, N-((8-Cyano-1,2,3,5,6,7-hexahydro-s-indacen-4-yl)carbamoyl)-1-isopropyl-1H-pyrazole-3-sulfonamide] | 0.25 to 0.5
25 | CC(C)c1cc(F)cc(C(C)C)c1CC(=O)NS(=O)(=O)c1ncc(C(C)(C)O)s1 [Example 30, 2-(4-Fluoro-2,6-diisopropylphenyl)-N-((5-(2-hydroxypropan-2-yl)thiazol-2-yl)sulfonyl)acetamide] | 1 to 5
26 | CC(C)c1cc(F)cc(C(C)C)c1NC(=O)NS(=O)(=O)c1cc(C(C)(C)O)n(C(C)C)n1 [Example 50, N-((4-Fluoro-2,6-diisopropylphenyl)carbamoyl)-5-(2-hydroxypropan-2-yl)-1-isopropyl-1H-pyrazole-3-sulfonamide] | 0.25 to 0.5
27 | CCOC(=O)CNC(=O)Nc1c2c(cc(C)c1-c1ccnc(OC3CCN(C)CC3)c1)CCC2 [Example 97, Ethyl 2-(3-(6-methyl-5-(2-((1-methylpiperidin-4-yl)oxy)pyridin-4-yl)-2,3-dihydro-1H-inden-4-yl)ureido)acetate] | 1 to 5
28 | Cc1cc(Br)cc(CC(=O)NS(=O)(=O)c2cc(C(C)(C)O)co2)c1 [Example 94, 2-(3-Bromo-5-methylphenyl)-N-((4-(2-hydroxypropan-2-yl)furan-2-yl)sulfonyl)acetamide] | 1 to 5
29 | COc1cc(-c2cc(F)cc(C(C)C)c2CCC(=O)NS(=O)(=O)c2cc(C(C)(C)O)cs2)ccn1 [Example 5, 3-(4-Fluoro-2-isopropyl-6-(2-methoxypyridin-4-yl)phenyl)-N-((4-(2-hydroxypropan-2-yl)thiophen-2-yl)sulfonyl)propanamide] | 5 to 10
30 | CC(C)OS(=O)(=O)NC(=O)Nc1c2c(cc3c1CCC3)CCC2 [Example 87, Isopropyl (1,2,3,5,6,7-hexahydro-s-indacen-4-yl)carbamoylsulfamate, sodium salt] | 1 to 5
31 | O=C(Nc1c2c(cc3c1CCC3)CCC2)NS(=O)(=O)c1cnn(CC2CC2)c1 [Example 44, 1-(Cyclopropylmethyl)-N-((1,2,3,5,6,7-hexahydro-s-indacen-4-yl)carbamoyl)-1H-pyrazole-4-sulfonamide, sodium salt] | < 0.25
32 | CC(C)c1cc(F)cc(C(C)C)c1CC(=O)NS(=O)(=O)c1cc(C(C)(C)O)n(C(C)C)n1 [Example 29, 2-(4-Fluoro-2,6-diisopropylphenyl)-N-((5-(2-hydroxypropan-2-yl)-1-isopropyl-1H-pyrazol-3-yl)sulfonyl)acetamide] | 5 to 10
33 | CC(C)c1cc(F)cc2c1C(C(=O)NS(=O)(=O)c1cc(C(C)(C)O)cs1)CC2(C)C (single isomer, unassigned) [Example 9, 5-Fluoro-N-((4-(2-hydroxypropan-2-yl)thiophen-2-yl)sulfonyl)-7-isopropyl-3,3-dimethyl-2,3-dihydro-1H-indene-1-carboxamide, potassium salt (rotamer P2)] | 5 to 10
